Source: patent publication US10670605B2, “Cysteine reactive probes and uses thereof” (The Scripps Research Institute, priority 2015, dated 2020)
Blank lines part the entries; values can stand above or below the molecule they belong to.

Tests used:
Test in all cases: Competitive isoTOP-ABPP in situ (fragment-treated cells)
Type in all cases: cell-based
[1] = molecular target: cysteines in MDA-MB-231 and Ramos cells (Homo sapiens, UniProt P46109); conditions: 200 μM, insitu
[2] = molecular target: cysteines in MDA-MB-231 and Ramos cells (Homo sapiens, UniProt Q96NY7)
[3] = molecular target: T1, cysteines in MDA-MB-231 and Ramos cells (Homo sapiens, UniProt Q9NQ88); conditions: 200 μM, insitu
T1 sequence (Q9NQ88 1-270): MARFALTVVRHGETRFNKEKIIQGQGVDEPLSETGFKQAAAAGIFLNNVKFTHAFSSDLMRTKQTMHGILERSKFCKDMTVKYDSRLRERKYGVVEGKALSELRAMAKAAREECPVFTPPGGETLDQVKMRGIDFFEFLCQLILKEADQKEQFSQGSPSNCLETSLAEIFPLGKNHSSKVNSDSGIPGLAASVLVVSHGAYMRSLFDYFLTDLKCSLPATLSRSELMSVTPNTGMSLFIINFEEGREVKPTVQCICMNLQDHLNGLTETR

[4] = molecular target: cysteines in MDA-MB-231 and Ramos cells (Homo sapiens, UniProt O60825); conditions: 200 μM, insitu
[5] = molecular target: T2, cysteines in MDA-MB-231 and Ramos cells (Homo sapiens, UniProt Q5T440); conditions: for isoTOP-ABPP ratio Q5T440_C170: 200 μM, insitu
T2 sequence (Q5T440 40-356): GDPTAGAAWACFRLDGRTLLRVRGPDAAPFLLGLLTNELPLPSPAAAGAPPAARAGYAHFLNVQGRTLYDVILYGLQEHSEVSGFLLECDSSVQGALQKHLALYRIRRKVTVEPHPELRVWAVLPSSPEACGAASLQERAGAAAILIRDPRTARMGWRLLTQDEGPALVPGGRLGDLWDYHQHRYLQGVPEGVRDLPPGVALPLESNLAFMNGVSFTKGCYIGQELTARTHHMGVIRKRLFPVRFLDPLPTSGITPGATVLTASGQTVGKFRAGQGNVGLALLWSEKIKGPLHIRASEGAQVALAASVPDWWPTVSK

[6] = molecular target: cysteines in MDA-MB-231 and Ramos cells (Homo sapiens, UniProt Q8NBS9)
[7] = molecular target: T3, cysteines in MDA-MB-231 and Ramos cells (Homo sapiens, UniProt P53384)
T3 sequence (P53384 1-320): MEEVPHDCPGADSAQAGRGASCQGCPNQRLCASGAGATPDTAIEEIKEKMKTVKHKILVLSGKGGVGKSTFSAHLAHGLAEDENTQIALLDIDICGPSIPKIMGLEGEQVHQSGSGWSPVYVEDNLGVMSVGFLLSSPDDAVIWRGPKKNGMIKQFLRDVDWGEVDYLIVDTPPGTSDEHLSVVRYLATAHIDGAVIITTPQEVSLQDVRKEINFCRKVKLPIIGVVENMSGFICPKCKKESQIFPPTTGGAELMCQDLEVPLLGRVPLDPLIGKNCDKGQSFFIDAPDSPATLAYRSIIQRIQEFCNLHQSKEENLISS

[8] = molecular target: T4, cysteines in MDA-MB-231 and Ramos cells (Homo sapiens, UniProt Q96RU2)
T4 sequence (Q96RU2 1-1077): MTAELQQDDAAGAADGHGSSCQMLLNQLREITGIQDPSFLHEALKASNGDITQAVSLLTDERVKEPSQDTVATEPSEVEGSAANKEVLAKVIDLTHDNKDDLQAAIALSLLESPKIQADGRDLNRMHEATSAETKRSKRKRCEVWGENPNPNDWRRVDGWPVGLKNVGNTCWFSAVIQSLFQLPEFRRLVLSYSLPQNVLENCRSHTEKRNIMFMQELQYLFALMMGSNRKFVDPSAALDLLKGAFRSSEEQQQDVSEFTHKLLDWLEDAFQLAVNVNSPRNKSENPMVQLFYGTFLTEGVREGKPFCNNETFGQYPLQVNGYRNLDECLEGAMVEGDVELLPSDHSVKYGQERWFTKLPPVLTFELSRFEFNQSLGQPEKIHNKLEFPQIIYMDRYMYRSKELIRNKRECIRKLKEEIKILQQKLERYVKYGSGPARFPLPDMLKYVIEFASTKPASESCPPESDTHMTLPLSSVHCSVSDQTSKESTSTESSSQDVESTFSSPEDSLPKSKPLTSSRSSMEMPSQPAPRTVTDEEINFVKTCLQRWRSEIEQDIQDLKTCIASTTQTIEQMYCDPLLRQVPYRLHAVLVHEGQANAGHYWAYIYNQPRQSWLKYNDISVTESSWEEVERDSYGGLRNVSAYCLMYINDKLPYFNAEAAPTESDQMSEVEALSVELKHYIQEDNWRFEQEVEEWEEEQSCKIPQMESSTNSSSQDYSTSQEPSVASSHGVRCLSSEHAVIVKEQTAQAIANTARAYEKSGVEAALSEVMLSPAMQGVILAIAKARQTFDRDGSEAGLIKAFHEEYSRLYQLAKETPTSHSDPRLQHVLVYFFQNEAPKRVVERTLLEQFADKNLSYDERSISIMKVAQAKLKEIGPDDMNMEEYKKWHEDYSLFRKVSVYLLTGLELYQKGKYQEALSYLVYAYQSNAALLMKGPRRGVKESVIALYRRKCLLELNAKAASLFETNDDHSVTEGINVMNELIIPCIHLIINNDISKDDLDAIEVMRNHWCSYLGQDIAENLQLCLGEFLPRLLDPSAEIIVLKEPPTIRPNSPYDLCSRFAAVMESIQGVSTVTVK

[9] = molecular target: cysteines in MDA-MB-231 and Ramos cells (Homo sapiens, UniProt P27707)
[10] = molecular target: cysteines in MDA-MB-231 and Ramos cells (Homo sapiens, UniProt Q6XZF7)
[11] = molecular target: cysteines in MDA-MB-231 and Ramos cells (Homo sapiens, UniProt P51812); conditions: 200 μM, insitu
Sequence of cysteines in MDA-MB-231 and Ramos cells (Homo sapiens, UniProt P51812) (P51812 whole entry): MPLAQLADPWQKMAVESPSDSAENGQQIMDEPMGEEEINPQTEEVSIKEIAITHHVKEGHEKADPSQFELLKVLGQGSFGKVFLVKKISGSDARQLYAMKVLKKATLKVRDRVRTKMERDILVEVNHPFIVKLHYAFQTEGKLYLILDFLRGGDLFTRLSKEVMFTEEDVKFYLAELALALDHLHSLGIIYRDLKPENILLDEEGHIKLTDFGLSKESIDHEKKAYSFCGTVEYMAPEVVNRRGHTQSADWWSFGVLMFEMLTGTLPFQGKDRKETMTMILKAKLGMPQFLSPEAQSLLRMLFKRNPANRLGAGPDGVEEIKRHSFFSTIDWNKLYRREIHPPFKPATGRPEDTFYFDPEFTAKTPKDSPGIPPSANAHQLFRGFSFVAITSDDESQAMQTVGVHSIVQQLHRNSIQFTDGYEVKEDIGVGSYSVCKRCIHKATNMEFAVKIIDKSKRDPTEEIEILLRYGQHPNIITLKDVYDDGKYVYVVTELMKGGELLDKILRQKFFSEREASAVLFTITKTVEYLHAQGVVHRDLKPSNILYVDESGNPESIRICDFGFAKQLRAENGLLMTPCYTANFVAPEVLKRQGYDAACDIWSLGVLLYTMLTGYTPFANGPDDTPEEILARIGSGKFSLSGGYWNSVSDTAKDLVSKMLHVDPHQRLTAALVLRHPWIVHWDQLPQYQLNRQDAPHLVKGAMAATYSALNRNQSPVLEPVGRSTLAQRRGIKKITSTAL

Sequence of cysteines in MDA-MB-231 and Ramos cells (Homo sapiens, UniProt Q8NBS9) (Q8NBS9 33-432): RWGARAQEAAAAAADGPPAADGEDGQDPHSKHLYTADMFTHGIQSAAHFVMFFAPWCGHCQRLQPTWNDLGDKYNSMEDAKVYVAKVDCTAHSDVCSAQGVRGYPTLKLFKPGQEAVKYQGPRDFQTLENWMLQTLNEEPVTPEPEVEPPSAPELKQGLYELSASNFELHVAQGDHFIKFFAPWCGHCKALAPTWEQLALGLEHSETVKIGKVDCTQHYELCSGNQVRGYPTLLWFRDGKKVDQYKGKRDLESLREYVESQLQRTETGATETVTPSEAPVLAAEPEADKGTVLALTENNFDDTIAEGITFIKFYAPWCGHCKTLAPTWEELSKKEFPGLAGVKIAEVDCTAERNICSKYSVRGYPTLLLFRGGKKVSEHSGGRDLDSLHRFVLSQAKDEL
Sequence of cysteines in MDA-MB-231 and Ramos cells (Homo sapiens, UniProt Q6XZF7) (Q6XZF7 whole entry): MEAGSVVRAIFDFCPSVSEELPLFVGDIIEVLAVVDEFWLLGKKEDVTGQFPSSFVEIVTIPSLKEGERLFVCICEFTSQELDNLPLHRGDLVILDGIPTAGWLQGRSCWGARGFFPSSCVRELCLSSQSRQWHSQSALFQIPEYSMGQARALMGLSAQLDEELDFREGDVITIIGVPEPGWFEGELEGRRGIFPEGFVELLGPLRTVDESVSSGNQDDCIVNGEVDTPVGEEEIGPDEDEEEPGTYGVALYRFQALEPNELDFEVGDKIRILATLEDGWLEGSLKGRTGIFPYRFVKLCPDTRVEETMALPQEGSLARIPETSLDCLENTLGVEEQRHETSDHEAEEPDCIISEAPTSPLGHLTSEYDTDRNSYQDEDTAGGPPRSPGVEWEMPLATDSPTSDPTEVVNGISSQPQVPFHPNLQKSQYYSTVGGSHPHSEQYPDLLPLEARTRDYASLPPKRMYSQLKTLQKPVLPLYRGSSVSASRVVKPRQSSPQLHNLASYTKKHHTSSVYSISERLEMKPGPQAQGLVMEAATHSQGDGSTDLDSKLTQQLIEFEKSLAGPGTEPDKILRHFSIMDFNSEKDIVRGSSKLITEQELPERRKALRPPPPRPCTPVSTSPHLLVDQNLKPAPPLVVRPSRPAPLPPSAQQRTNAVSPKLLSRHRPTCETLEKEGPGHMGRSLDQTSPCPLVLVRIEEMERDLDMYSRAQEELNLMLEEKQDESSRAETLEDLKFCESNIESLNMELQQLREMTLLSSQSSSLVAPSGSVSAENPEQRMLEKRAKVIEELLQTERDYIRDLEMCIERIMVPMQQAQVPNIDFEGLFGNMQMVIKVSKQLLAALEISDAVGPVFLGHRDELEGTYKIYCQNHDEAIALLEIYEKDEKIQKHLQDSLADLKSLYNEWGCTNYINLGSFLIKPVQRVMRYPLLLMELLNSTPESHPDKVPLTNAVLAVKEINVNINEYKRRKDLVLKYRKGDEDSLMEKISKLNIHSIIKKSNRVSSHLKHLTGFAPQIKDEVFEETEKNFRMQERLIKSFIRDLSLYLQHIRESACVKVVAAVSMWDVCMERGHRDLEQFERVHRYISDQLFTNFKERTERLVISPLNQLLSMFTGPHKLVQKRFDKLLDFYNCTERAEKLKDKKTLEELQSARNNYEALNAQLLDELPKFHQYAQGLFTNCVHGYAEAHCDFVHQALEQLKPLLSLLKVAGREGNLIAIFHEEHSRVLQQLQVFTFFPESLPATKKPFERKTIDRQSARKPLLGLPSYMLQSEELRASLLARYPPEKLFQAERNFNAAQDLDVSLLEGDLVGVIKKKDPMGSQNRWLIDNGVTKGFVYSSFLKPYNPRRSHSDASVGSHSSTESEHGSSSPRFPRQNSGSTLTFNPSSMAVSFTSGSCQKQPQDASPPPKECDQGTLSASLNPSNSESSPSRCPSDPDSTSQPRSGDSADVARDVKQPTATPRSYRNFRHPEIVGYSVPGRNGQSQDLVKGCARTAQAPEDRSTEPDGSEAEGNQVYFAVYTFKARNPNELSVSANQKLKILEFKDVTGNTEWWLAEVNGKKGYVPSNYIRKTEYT
Sequence of cysteines in MDA-MB-231 and Ramos cells (Homo sapiens, UniProt P46109) (P46109 whole entry): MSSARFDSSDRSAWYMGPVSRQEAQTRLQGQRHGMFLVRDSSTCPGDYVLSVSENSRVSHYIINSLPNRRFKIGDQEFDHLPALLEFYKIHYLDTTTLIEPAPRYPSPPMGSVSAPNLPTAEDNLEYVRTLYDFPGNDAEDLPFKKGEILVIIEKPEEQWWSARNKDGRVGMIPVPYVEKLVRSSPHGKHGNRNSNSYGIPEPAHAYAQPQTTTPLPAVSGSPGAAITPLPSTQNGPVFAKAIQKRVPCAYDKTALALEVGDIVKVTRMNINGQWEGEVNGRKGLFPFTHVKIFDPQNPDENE
Sequence of cysteines in MDA-MB-231 and Ramos cells (Homo sapiens, UniProt O60825) (O60825 whole entry): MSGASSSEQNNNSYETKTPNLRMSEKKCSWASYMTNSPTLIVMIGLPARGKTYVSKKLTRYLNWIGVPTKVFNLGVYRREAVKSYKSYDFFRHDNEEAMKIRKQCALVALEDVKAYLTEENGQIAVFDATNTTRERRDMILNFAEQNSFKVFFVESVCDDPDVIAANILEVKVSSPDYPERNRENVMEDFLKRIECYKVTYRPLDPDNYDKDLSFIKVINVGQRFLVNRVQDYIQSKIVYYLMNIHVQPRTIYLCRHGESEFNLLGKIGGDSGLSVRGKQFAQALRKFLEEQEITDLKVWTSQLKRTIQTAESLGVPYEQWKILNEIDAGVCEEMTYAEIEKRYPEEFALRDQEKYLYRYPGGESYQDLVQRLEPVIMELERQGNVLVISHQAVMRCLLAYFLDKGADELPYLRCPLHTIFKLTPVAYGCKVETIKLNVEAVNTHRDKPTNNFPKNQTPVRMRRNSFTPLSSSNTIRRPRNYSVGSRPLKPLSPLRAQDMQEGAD
Sequence of cysteines in MDA-MB-231 and Ramos cells (Homo sapiens, UniProt P27707) (P27707 whole entry): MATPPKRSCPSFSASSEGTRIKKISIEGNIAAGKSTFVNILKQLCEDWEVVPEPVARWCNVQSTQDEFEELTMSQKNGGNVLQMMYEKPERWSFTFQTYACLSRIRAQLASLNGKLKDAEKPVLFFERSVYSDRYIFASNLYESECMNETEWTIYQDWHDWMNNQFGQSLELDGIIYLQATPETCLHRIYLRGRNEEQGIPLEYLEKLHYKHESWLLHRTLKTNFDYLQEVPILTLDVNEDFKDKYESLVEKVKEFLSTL
Sequence of cysteines in MDA-MB-231 and Ramos cells (Homo sapiens, UniProt Q96NY7) (Q96NY7 whole entry): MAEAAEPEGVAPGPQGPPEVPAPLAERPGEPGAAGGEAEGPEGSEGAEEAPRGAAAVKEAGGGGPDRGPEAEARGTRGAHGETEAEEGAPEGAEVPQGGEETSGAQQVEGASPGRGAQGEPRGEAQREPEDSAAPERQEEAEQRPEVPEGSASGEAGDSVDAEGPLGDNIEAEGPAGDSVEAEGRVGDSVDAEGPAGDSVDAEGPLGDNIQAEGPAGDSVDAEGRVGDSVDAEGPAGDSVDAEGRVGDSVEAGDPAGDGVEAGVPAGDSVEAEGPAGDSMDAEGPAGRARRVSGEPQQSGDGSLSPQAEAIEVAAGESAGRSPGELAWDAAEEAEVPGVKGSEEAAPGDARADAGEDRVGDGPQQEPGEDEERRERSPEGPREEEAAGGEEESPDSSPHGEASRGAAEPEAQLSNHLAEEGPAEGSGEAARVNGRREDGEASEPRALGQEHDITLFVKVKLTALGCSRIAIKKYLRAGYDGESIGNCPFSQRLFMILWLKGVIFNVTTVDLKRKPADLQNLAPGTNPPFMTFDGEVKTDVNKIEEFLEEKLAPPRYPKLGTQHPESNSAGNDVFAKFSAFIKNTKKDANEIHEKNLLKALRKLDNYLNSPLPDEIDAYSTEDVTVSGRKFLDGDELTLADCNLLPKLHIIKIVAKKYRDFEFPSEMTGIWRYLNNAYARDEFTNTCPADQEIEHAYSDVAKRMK

SMILES: COc1cc2c(cc1OC)CN(C(=O)CCl)CC2 [compound 8]
isoTOP-ABPP reactivity P53384_C235 NUBP1 ([7]; 200 μM, insitu, 231): 0.6
isoTOP-ABPP reactivity Q96NY7_C487 CLIC6 ([2]; 200 μM, insitu, 231): 5.1
isoTOP-ABPP reactivity Q96RU2_C171 USP28 ([8]; 200 μM, insitu, 231): 1.2

SMILES: C=CC(=O)N(Cc1cccnc1)c1cc(C(F)(F)F)cc(C(F)(F)F)c1 [compound 31]
isoTOP-ABPP ratio P53384_C235 ([7]; 200 μM, insitu, 231): 0.7
isoTOP-ABPP ratio Q96NY7_C487 ([2]; 200 μM, insitu, 231): 0.5
isoTOP-ABPP ratio Q9NQ88_C161 [3]; 231: 1.0
isoTOP-ABPP ratio Q9NQ88_C161 ([3]; ramos): 2.6
isoTOP-ABPP ratio O60825_C158 ([4]; ramos): 1,3
isoTOP-ABPP ratio Q6XZF7_C691 ([10]; 200 μM, insitu, 231): 2.3
isoTOP-ABPP ratio P27707_C9 ([9]; 200 μM, insitu, ramos): 1.2
isoTOP-ABPP ratio Q8NBS9_C350 ([6]; 200 μM, insitu, 231): 0.8

SMILES: O=C(CCl)NCCc1c[nH]c2ccccc12 [compound 13]
isoTOP-ABPP ratio P46109_C249 ([1]; ramos): 1.8
isoTOP-ABPP ratio Q96NY7_C487 ([2]; 200 μM, insitu, 231): 1.9
isoTOP-ABPP ratio Q9NQ88_C114 [3]; 231: 1.1
isoTOP-ABPP ratio Q9NQ88_C161 [3]; 231: 1.1
isoTOP-ABPP ratio Q9NQ88_C114 ([3]; ramos): 1.2
isoTOP-ABPP ratio Q9NQ88_C161 ([3]; ramos): 1.5
isoTOP-ABPP ratio, cysteine P51812_C436 [11]; 231: 1.0
isoTOP-ABPP ratio O60825_C158 ([4]; ramos): 0.9
isoTOP-ABPP ratio Q5T440_C170 [5]; 231: 1.2
isoTOP-ABPP ratio, cysteine Q6XZF7_C691 ([10]; 200 μM, insitu, 231): 1.6
isoTOP-ABPP ratio P27707_C9 ([9]; 200 μM, insitu, 231): 1.0
isoTOP-ABPP ratio P27707_C9 ([9]; 200 μM, insitu, ramos): 1.3
isoTOP-ABPP ratio Q8NBS9_C350 ([6]; 200 μM, insitu, 231): 1.3

SMILES: O=C(CCl)N1CCC(Cc2ccccc2)CC1 [compound 9]
isoTOP-ABPP reactivity P46109_0249 CRKL [1]; 231: 6.7
isoTOP-ABPP reactivity P53384_C235 NUBP1 ([7]; 200 μM, insitu, 231): 6.8
isoTOP-ABPP reactivity Q96NY7_C487 CLIC6 ([2]; 200 μM, insitu, 231): 3.6
isoTOP-ABPP reactivity Q9NQ88_C114 TIGAR [3]; 231: 1.9
isoTOP-ABPP reactivity Q9NQ88_C161 TIGAR [3]; 231: 2.6
isoTOP-ABPP reactivity P51812_C436 RPS6KA3 [11]; 231: 2.1
isoTOP-ABPP reactivity Q6XZF7_C691 DNMBP ([10]; 200 μM, insitu, 231): 3.4
isoTOP-ABPP reactivity P27707_C9 DCK ([9]; 200 μM, insitu, 231): 4.9
isoTOP-ABPP reactivity Q8NBS9_C350 TXNDC5 ([6]; 200 μM, insitu, 231): 1.7

SMILES: COc1ccc(C2CC(c3cccs3)=NN2C(=O)CCl)cc1 (centres unmarked) [compound 4]
isoTOP-ABPP reactivity P53384_C235 NUBP1 ([7]; 100 μM in situ 231): 0.6
isoTOP-ABPP reactivity Q96NY7_C487 CLIC6 ([2]; 100 μM in situ 231): 20.0
isoTOP-ABPP reactivity Q96RU2_C171 USP28 ([8]; 100 μM in situ 231): 20.0
isoTOP-ABPP reactivity Q5T440_C170 IBA57 ([5]; 100 μM in situ 231): 1.5
isoTOP-ABPP reactivity Q6XZF7_C691 DNMBP ([10]; 100 μM in situ 231): 1.2
isoTOP-ABPP reactivity P27707_C9 DCK ([9]; 100 μM in situ 231): 1.4
isoTOP-ABPP reactivity Q8NBS9_C350 TXNDC5 ([6]; 100 μM in situ 231): 2.4

SMILES: O=C(CCl)N1CCN(CC(=O)N2CCOCC2)CC1 [compound 29]
isoTOP-ABPP ratio P46109_C249 ([1]; ramos): 4.2
isoTOP-ABPP ratio Q9NQ88_C114 ([3]; ramos): 0.9
isoTOP-ABPP ratio Q9NQ88_C161 ([3]; ramos): 1.3
isoTOP-ABPP ratio P51812_C436 ([11]; ramos): 1.3
isoTOP-ABPP ratio O60825_C158 ([4]; ramos): 0.9
isoTOP-ABPP ratio Q5T440_C170 ([5]; ramos): 1.3
isoTOP-ABPP ratio P27707_C9 ([9]; 200 μM, insitu, ramos): 1.2

Second part, the molecule after the results:

isoTOP-ABPP ratio P46109_C249 [1]; 231: 20.0
isoTOP-ABPP ratio Q96NY7_C487 ([2]; 200 μM, insitu, 231): 1.8
isoTOP-ABPP ratio Q9NQ88_C114 [3]; 231: 4.6
isoTOP-ABPP ratio Q9NQ88_C161 [3]; 231: 20.0
isoTOP-ABPP ratio O60825_C158 [4]; 231: 1.3
isoTOP-ABPP ratio Q5T440_C170 [5]; 231: 3.5
isoTOP-ABPP ratio Q8NBS9_C350 ([6]; 200 μM, insitu, 231): 2.1
SMILES: CC1CCc2ccccc2N1C(=O)CCl (centres unmarked) [compound 45]

isoTOP-ABPP ratio O60825_C158 [4]; 231: 0.9
SMILES: O=C(CCl)Nc1cccc2ncccc12 [compound 51]

isoTOP-ABPP ratio P46109_C249 [1]; 231: 1.6
isoTOP-ABPP ratio P53384_C235 ([7]; 200 μM, insitu, 231): 2.0
isoTOP-ABPP ratio, Q96RU2_C171 ([8]; 200 μM, insitu, 231): 0.8
isoTOP-ABPP ratio P27707_C9 ([9]; 200 μM, insitu, 231): 1.8
SMILES: C=CC(=O)Nc1cc(F)c(N2CCN(C(=O)OC(C)(C)C)CC2)c(F)c1 [compound 38]
